Experimental data from patent US6107070A, “Human manganese superoxide dismutase proteins” (University of Florida, priority 1998, dated 2000).
Substitutions are numbered along the chain they refer to. Where two headings read alike, the source gives them in different places.

Legend:
[1] = biological target: T1, human manganese superoxide dismutase (hMn SOD), wild type, SEQ ID NO:2 (Homo sapiens, UniProt P04179); assay: Disproportionation of superoxide by wild type hMnSOD, Example 3 (Tables 4 and 5), 20° C.; assay type: biochemical
T1 construct: where it is then cleaved off leaving the mature protein
T1 sequence (P04179 25-222): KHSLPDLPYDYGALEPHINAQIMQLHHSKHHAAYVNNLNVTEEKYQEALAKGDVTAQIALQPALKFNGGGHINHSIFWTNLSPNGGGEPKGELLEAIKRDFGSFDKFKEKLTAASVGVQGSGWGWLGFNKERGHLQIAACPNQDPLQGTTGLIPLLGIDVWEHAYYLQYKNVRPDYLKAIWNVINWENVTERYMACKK
Experimental: (§1) Experiments were based on the stabilization of KO2 in aprotic solvent and the subsequent large dilution of this solution by an aqueous solution of enzyme in a stopped-flow apparatus, as described by McClune and Fee (1978). KO2 was dissolved in a mixture of dimethyl sulfoxide and […] (2:1 by volume; Aldrich, spectrophotometric grade) with solubility of KO2 enhanced with 18-crown-6 (Valentine and Curtis, 1975). The stopped-flow spectrophotometer (Kinetic Instruments, Ann Arbor, Mich.) was capable of efficient mixing of this solution with an acqueous solution of enzyme in buffer with a dead time between 1.5 and 2.0 ms. One drive syringe (capacity 50 μl) contained the aprotic solution of O2. This was diluted fifty-fold by the contents of a second syringe (capacity 2.5 ml) which contained enzyme, EDTA, and buffer. The decay of superoxide in initial velocity experiments and progress curves was monitored by its absorption at 250 to 300 nm. Stopped-flow experiments were carried out at […]. Four or more kinetic traces were averaged to reduce noise. Steady-state parameters were obtained by least-squares analysis of such data (Leatherbarrow (1987) "Enzfitter: a nonlinear regression data analysis program for the IBM PC" Elsevier BIOSOFT, Cambridge).
(§2) In the present study, several novel hMnSOD proteins containing substitutions of His 30 (referring to the amino acid sequence of SEQ ID NO:2) were prepared by PCR site directed mutagenesis and purified by column chromatography, as described in the Materials and Methods section above, and as also described by Hsu et al. (1996) J. Biol. Chem. 271: 1768; and Hsieh et al. (1998) Biochemistry 37: 4731. In particular, His 30 was substituted with each of Ala, Asn, Ser and Gln. The resulting novel hMnSOD proteins containing a His 30 substitution were then assayed for enzymatic activity and product inhibition at 20° C. by measuring the absorbance of superoxide at 250 nm using stopped-flow spectrophotometry, as described above in the Materials and Methods section. […]

[2] = biological target: T2, human manganese superoxide dismutase (hMn SOD) variant Y34F (Tyr34Phe) (Homo sapiens, UniProt P04179, Y58F); assay: Disproportionation of superoxide by Y34F hMnSOD, Example 3 (Tables 4 and 5), 20° C.; assay type: biochemical
T2 construct: as a mature protein tagged with an extra Met at the amino terminus; made in house; host or cells: E. coli QC774 (SodA/SodB mutant), pTrc99A
T2 sequence (P04179 25-222 Y58F): T1 sequence (P04179 25-222) with Y34F
Experimental: as §1, §2

[3] = biological target: T3, human manganese superoxide dismutase (hMn SOD) variant H30E (Homo sapiens, UniProt P04179, E155Q/H54E); assay: Disproportionation of superoxide by H30E hMnSOD, 20° C.; assay type: biochemical; conditions: Table 4; pH 9.4, 20° C.
T3 construct: as a mature protein tagged with an extra Met at the amino terminus; made in house
T3 sequence (P04179 25-222 H54E/E155Q): T1 sequence (P04179 25-222) with H30E, E131Q

[4] = biological target: T4, human manganese superoxide dismutase (hMn SOD) variant H30K (Homo sapiens, UniProt P04179, H54K); assay: Disproportionation of superoxide by H30K hMnSOD, 20° C.; assay type: biochemical; conditions: Table 4; pH 9.4, 20° C.
T4 construct: as a mature protein tagged with an extra Met at the amino terminus; made in house
T4 sequence (P04179 25-222 H54K): T1 sequence (P04179 25-222) with H30K

[5] = biological target: T1, human manganese superoxide dismutase (hMn SOD), wild type, SEQ ID NO:2; conditions: cited from earlier work
[6] = Table 4, 20° C., pH 9.4 per footnote
[7] = Table 1, pulse radiolysis, 20° C., pH 9.6 (Hsu et al., 1996)
[8] = Table 2, KINSIM fit of FIG. 8 scheme to pulse radiolysis data, 20° C., pH 9.6
[9] = Table 3, KINSIM fit to pulse radiolysis data, 20° C., pH 9.6

[O]O [superoxide]
kcat [1, 6]: 40 ms^.1
kcat /Km [1, 6]: 800 μM^.1 S^.1
ko /[E] (rate constant for the zero-order region of catalysis) ([1]; Table 5, pH 9.6, 20° C.): 500 S^.1
kcat [2, 6]: 3.3 ms^.1
kcat /Km [2, 6]: 870 μM^.1 S^.1
ko /[E] (rate constant for the zero-order region of catalysis) ([2]; Table 5, pH 9.6, 20° C.): 88 S^.1
kcat [3]: 0.052 ms^.1
kcat /Km [3]: 0.63 μM^.1 S^.1
kcat [4]: 0.74 ms^.1
kcat /Km [4]: 0.80 μM^.1 S^.1
kcat [5, 7]: 40 ms^-1
kcat /km [5, 7]: 8e+08 M⁻¹ s⁻¹
k1 [5, 8]: 2e+09 M⁻¹ s⁻¹
k3 [5, 8]: 2e+09 M⁻¹ s⁻¹
k4 [5, 8]: 80000 s⁻¹
k-1 [5, 8]: 20000 s⁻¹
k-3 [5, 8]: 20000 s⁻¹
k-4 [5, 8]: 300 M⁻¹ s⁻¹
k-5 ([5]; Table 2, KINSIM fit, dead-end complex, 20° C., pH 9.6): 130 s⁻¹
k5 ([5]; Table 2, KINSIM fit, formation of dead-end complex, 20° C., pH 9.6): 20000 s⁻¹
k1 [5, 9]: 20000 s⁻¹
k3 [5, 9]: 20000 s⁻¹
k4 [5, 9]: 300 M⁻¹ s⁻¹
k5 [5, 9]: 130 s⁻¹
k-1 [5, 9]: 2e+09 M⁻¹ s⁻¹
k-3 [5, 9]: 2e+09 M⁻¹ s⁻¹
k-4 [5, 9]: 80000 s⁻¹
k-5 [5, 9]: 2 × 10^4
k2 ([5]; Tables 2 and 3, KINSIM fit of FIG. 8 scheme to pulse radiolysis data, 20° C., pH 9.6): 80000 s⁻¹
kcat /km (diffusion controlled) ([5]; approximate value): ~10^9 M^-1 s^-1
kcat /Km ([5]; pH 9.6, 20° C. (Hsu et al., 1996)): 8e+08 M⁻¹ s⁻¹
